Data taken from patent US20230096203A1, “METHODS FOR DETECTING FOOD ALLERGIES” (THE REGENTS OF THE UNIVERSITY OF MICHIGAN, priority 2020, published 2023).

System: CFTR-dependent Cl— transport
Assay: Ussing chamber: forskolin-induced short-circuit current of jejunum segments pre-incubated ex vivo with ion channel blockers
Parameters: species or system BALB/c wild-type (WT) mice
Conditions: jejunum of OVA-treated mice; DIDS (100 μM) or CFTRInh172 (20 μM) in mucosal reservoir
Description: Oral Antigen-Induced Intestinal Anaphylaxis. 4-8-week-old mice were sensitized to ovalbumin (OVA) ([…] of OVA/1 mg of alum in sterile saline by intraperitoneal (i.p.) injection) and received repeated oral gavage (o.g.) challenge with OVA (250 μl of OVA (50 mg) in saline or 250 μl of saline (vehicle)) as previously described (Ahrens et al., American Journal of Pathology 180, 1535-1546, doi:10.101/j.ajpath.2011.12.036 (2012)). Prior to each o.g. challenge, mice were deprived of food for 4-5 hours. Rectal temperatures were measured prior to challenge and then every 15 minutes for 60 minutes. […] Evidence of secretory diarrhea was assessed by determination of short-circuit current (Isc) of small intestine (Si) segments ex vivo in a Ussing chamber system up to 60 minutes following o.g. challenge. […]
Ussing chambers. […] The transepithelial potential difference (PD) was detected with two paired electrodes that contained 4% agar in 3 M KCl. […] To establish equilibrium, PD was continuously monitored under open-circuit conditions for 15 min. […] For ion conductance experiments, changes in Isc were determined for the cumulative addition of forskolin and acetylcholine to the serosal reservoir. After the peak response to the final concentration of each agonist was recorded, the Krebs buffer on each side of the chamber was replaced, and the tissue was allowed to equilibrate for 30 minutes. […]

Row | SMILES | Forskolin-induced ΔIsc
1 | O=C(O)c1ccc(/C=C2\SC(=S)N(c3cccc(C(F)(F)F)c3)C2=O)cc1 [CFTR^inh172] | abrogated
2 | O=S(=O)(O)c1cc(N=C=S)ccc1C=Cc1ccc(N=C=S)cc1S(=O)(=O)O [DIDS, 4,4′-Diisothiocyanatostilbene-2,2′-disulfonate] | not
